In US12312379B2, “Methods for producing cyclic compounds comprising N-substituted amino acid residues” (Chugai Seiyaku Kabushiki Kaisha, priority 2021, dated 2025):
In brackets after ≈: the same amount, converted by molar mass. Like-named read-outs stand apart in the source and are kept apart here.

Experiments:
[1] = Water content by Karl Fischer titration (CA-310); format: physicochemical; details: after acclimatization of the sample to laboratory environment
Description: The water content of the hydrate crystals (Form C) of Compound 1 prepared in Example 26 was measured by Karl Fischer titration method. After acclimatization of the sample to laboratory environment, the measurement was carried out using CA-310 (manufactured by Nittoseiko Analytech).

[2] = Dynamic water vapor adsorption (DVS Intrinsic); format: physicochemical; details: 25° C., relative humidity range of 0% to 95%, relative to the weight when the relative humidity is 0%
Description: The dynamic water vapor adsorption properties of the hydrate crystals (Form C) of Compound 1 prepared in Example 26 were measured by the following method. The results are shown in FIG. 10. • Measurement apparatus: DVS Intrinsic (manufactured by Surface Measurement Systems) • Temperature: 25° C. • Relative humidity (%) measurement points: • Cycle 1: 0, 10, 20, 30, 40, 50, 60, 70, 80, 90, 95, 90, 80, 70, 60, 50, 40, 30, 20, 10, 0(%); • Cycle 2: 10, 20, 30, 40, 50, 60, 70, 80, 90, 95, 90, 80, 70, 60, 50, 40, 30, 20, 10, 0(%) • Threshold: 0.001 dm/dt (%/min) • Minimum adsorption time: 10 min • Maximum adsorption time: 1440 min

[3] = Powder X-ray diffraction at different humidities; format: physicochemical; details: 35.0 °C, relative humidity of 75% to 0%, versus Form C obtained in Example 25
Description: Powder X-ray diffraction of the hydrate crystals (Form C) of Compound 1 prepared in Example 26 was measured at different humidities by the following method. Measurement apparatus: SmartLab System, D/Tex Ultra detector, humidity generator HUM-SL (manufactured by Rigaku Corporation) • Anticathode: Cu • Tube voltage: 45 kV • Tube current: 200 mA • Scanning range: 5-30° • Scanning speed: 0.7°/min • Sampling width: 0.02° • Varying humidity conditions: […]

[4] = water/octanol; literature or database values; cited from earlier work
[5] = Merck Index 14th Edition; Org. Process Res. Dev. 2007 for 2-MeTHF; cited from earlier work
Amount of acetone by GC = format: physicochemical; details: wet crystals
Description: The conditions for analyzing the amount of acetone by GC are shown below. • Instrument: GC-2010 (manufactured by SHIMADZU CORPORATION) • Column: DB-624 (Agilent), 0.530 mm ID×30 m, 3.00 μm • Column temperature: 50° C. (5 min)→10° C./min→90° C. (0 min)→50° C./min→240° C. (5 min) • Injector temperature: 230° C. • Detector temperature: 250° C. • Split ratio: 20/1 • Flow rate: 30 cm/sec

[6] = Water content by Karl Fischer titration (CA-200); format: physicochemical; details: wet crystals
Source text: The conditions for analyzing the water content by Karl Fischer titration method are shown below. • Instrument: CA-200 (manufactured by Nittoseiko Analytech Co., Ltd.) • Anolyte: Aquamicron AKX • Catholyte: Aquamicron CXU

[7] = cited from earlier work
[8] = Org. Process Res. Dev. 2007 / J. Mol. Catal. A Chem. 2010

Compound | log Kow values or predicted log Kow values [4] | miscibility / solubility in water (in words) [5] | amount that dissolves in 1 L of water ([7]; Merck Index 14th Edition) [g] | further results
(5S,8S,11S,15S,18S,23aS,29S,35S,37aS)-8-((S)-sec-butyl)-18-cyclopentyl-29-(3,5-difluoro-4-(trifluoromethyl)phenethyl)-36-ethyl-11-isobutyl-N,N,5,6,12,16,19,33-octamethyl-35-(4-methylbenzyl)-4,7,10,13,17,20,23,28,31,34,37-undecaoxotetratriacontahydro-2H,4H-spiro[azeto[2,1-u]pyrrolo[2,1-i][1,4,7,10,13,16,19,22,25,28,31]undecaazacyclotetratriacontin-21,1′-cyclopentane]-15-carboxamide [hydrate crystals (Form C) of Compound 1] | – | – | – | water content [1]: 6.50 wt %; weight change as the hydration number changes [2]: ≤ 3.3 % weight; shift in 2θ values [3]: ≤ 0.2 °
CC#N [acetonitrile] | −0.34 | miscible with water | – | –
(5S,8S,11S,15S,18S,23aS,29S,35S,37aS)-8-((S)-sec-butyl)-18-cyclopentyl-29-(3,5-difluoro-4-(trifluoromethyl)phenethyl)-36-ethyl-11-isobutyl-N,N,5,6,12,16,19,33-octamethyl-35-(4-methylbenzyl)-4,7,10,13,17,20,23,28,31,34,37-undecaoxotetratriacontahydro-2H,4H-spiro[azeto[2,1-u]pyrrolo[2,1-i][1,4,7,10,13,16,19,22,25,28,31]undecaazacyclotetratriacontin-21,1′-cyclopentane]-15-carboxamide | – | – | – | acetone content (Amount of acetone by GC): 3.7%; water content [6]: 17.5%
COc1ccccc1 [anisole] | 2.11 | – | – | –
CC(=O)OC(C)C [isopropyl acetate] | 1.02 | – | 43 | –
CCOC(C)=O [ethyl acetate] | 0.73 | – | 100 | –
CC1CCCO1 (stereo not drawn) [Compound 2-MeTHF, 2-methyltetrahydrofuran] | 1.35 | not miscible with water | – | amount that dissolves in 1 L of water [7, 8]: 140 g; water solubility ([7]; room temperature (e.g. 25° C.)): 150 mg/mL (≈ 1740 mM)
COC(=O)OC [dimethyl carbonate] | 0.23 | – | 139 | amount that dissolves in 1 L of water [7, 8]: 139 g
C[S+](C)[O-] [DMSO, dimethyl sulfoxide] | −0.31 | soluble in water | – | water solubility ([7]; ChemIDplus Advanced (NIH)): 1000 mg/mL (≈ 12800 mM)
CCCCCCC [heptane] | 4.66 | insoluble in water | – | –
